Reference: patent US20170280720A1, “ARGININE […] INHIBITORS AND USES THEREOF” (EPIZYME, INC., priority 2014, published 2017)

Columns and labels:
[1] = tested on: asymmetric di-methyl PABP1 in RKO cells; assay: In Cell Western (ICW) for asymmetric di-methyl PABP1 and DNA content in RKO cells; format: cell-based; conditions: Homo sapiens, RKO
Description: RKO adherent cells were purchased from ATCC (American Type Culture Collection), Manassas, Va., USA. DMEM/Glutamax medium, penicillin-streptomycin, heat inactivated fetal bovine serum, 0.05% trypsin and D-PBS were purchased from Life Technologies, Grand Island, N.Y., USA. Odyssey blocking buffer, 800CW goat anti-rabbit IgG (H+L) antibody, and Licor Odyssey infrared scanner were purchased from Licor Biosciences, Lincoln, Nebr., USA. Mono-methyl arginine antibody was purchased from Cell Signaling Technology, Danvers, Mass., USA. Methanol was purchased from VWR, Franklin, Mass., USA. 10% Tween 20 was purchased from KPL, Inc., Gaithersburg, Md., USA. […] was purchased from Biostatus Limited, Leicestershire, UK. RKO adherent cells were maintained in growth medium (DMEM/Glutamax medium supplemented with 10% v/v heat inactivated fetal bovine serum and 100 units/mL penicillin-streptomycin) and cultured at 37° C. under 5% CO2. Cell Treatment, in Cell Western (ICW) for Detection of Asymmetric Di-Methyl PABP1 and DNA Content. RKO cells were seeded in assay medium at a concentration of 30,000 cells per mL to a poly-D-lysine coated 384 well culture plate (BD Biosciences 356697) with 50 μL per well. Compound (100 nL) from a 96-well source plate was added directly to 384 well cell plate. Plates were incubated at 37° C., 5% CO2 for 48 hours. After two days of incubation, plates were brought to room temperature outside of the incubator for ten minutes and blotted on paper towels to remove cell media. Cells were fixed for 20 minutes at room temperature by adding 50 μl of 8% PFA followed by aspiration of supernatant with the Biotek EL406 plate washer. Cells were then permeabilized by addition of 50 μL of ice cold 100% methanol directly to each well and incubated for 30 min at room temperature. After 30 min, plates were transferred to a Biotek EL406 plate washer and washed 2 times with 100 μL per well of wash buffer (1×PBS). Next 60 μL per well of Odyssey blocking buffer (Odyssey Buffer with 0.1% Tween 20 (v/v)) were added to each plate and incubated 1 hour at room temperature. Blocking buffer was removed and 20 μL per well of primary antibody was added (asymmetric-methyl PABP1) diluted 1:400 in Odyssey buffer with 0.1% Tween 20 (v/v)) and plates were incubated overnight (16 hours) at 4° C. Plates were washed 5 times with 100 μL per well of wash buffer. Next 20 μL per well of secondary antibody was added (1:800 800CW goat anti-rabbit IgG (H+L) antibody, 1:2000 DRAQS in Odyssey buffer with 0.1% Tween 20 (v/v)) and incubated for 1 hour at room temperature. The plates were washed 5 times with 100 μL per well wash buffer then 2 times with 100 μL per well of water. Plates were allowed to dry at room temperature then imaged on the Licor Odyssey machine which measures integrated intensity at 700 nm and 800 nm wavelengths. Both 700 and 800 channels were scanned. Calculations: First, the ratio for each well was determined by: Each plate included fourteen control wells of DMSO only treatment (minimum inhibition) as well as fourteen control wells for maximum inhibition treated with 20 μM of a reference compound. The average of the ratio values for each control type was calculated and used to determine the percent activation for each test well in the plate. Reference compound was serially diluted three-fold in DMSO for a total of nine test concentrations, beginning at 20 μM. Percent inhibition was determined and IC50 curves were generated using triplicate wells per concentration of compound.

Human CARM1 (PRMT4) = target: T1, Human CARM1 (PRMT4) (Homo sapiens, UniProt Q86X55); assay: CARM1 biochemical assay (3H-SAM Flashplate, peptide substrate); conditions: read-out: CARM1_ IC50
T1 construct: Flag-CARM1-His; made in house; host or cells: HEK 293F cells (BacMam baculovirus, pFastBacMam)
T1 sequence (Q86X55 2-585 isoform Q86X55-1): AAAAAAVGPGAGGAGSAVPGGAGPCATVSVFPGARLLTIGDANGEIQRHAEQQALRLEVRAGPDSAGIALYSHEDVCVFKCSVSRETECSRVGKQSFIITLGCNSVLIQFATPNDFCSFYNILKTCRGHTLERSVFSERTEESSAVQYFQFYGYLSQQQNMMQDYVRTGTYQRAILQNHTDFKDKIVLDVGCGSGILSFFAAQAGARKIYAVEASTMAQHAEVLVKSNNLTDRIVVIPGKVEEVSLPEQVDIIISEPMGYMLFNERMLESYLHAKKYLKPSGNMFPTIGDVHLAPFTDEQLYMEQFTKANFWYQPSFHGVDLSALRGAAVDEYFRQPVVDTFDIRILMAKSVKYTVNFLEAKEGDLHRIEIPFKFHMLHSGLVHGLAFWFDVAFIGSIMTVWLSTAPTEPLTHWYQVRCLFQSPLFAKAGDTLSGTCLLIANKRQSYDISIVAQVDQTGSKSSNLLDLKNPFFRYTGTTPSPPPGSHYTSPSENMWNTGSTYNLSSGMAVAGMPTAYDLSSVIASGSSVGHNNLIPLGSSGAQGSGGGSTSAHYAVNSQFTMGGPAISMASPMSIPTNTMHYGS
How it was run: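 FLAG/His-tagged human CARM1 (isoform 1, Δ539-561, baculovirus-expressed), 0.25 nM, preincubated 30 min at room temperature with compound (2% DMSO) in 20 mM Bicine pH 7.6, then reacted with 30 nM 3H-SAM and 250 nM biotinylated H3 16-30 peptide (R26 monomethyl). Stopped with 300 uM cold SAM; labelled peptide captured on streptavidin Flashplate; % inhibition versus DMSO and 1 mM SAH controls fitted to a 4- or 3-parameter curve.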

Structure (SMILES) | IC50 ([1]; In Cell Western) | IC50 (Human CARM1 (PRMT4)) | IC50 ([1]; 48 h)
CC(C)n1ncc2c(C(=O)N3CCC(F)(F)C3)cc(-c3cccc(CN(C)CCN)c3)nc21 [Compound 261] | 20000 nM | 69.4 nM | –
CCN(Cc1cccnc1)C(=O)c1cc(-c2cccc(CN(C)CCN)c2)nc2c1cnn2C(C)C [Compound 211] | 3250 nM | 23.9 nM | –
CNCCN(C)Cc1cccc(-c2cc(C(=O)NCc3cn(C)cn3)c3cnn(C(C)C)c3n2)c1 [Compound 223] | 3470 nM | 35.3 nM | –
CNCCN(C)Cc1cccc(-c2cc(C(=O)NCC3CCOCC3)c3cnn(CC(F)(F)F)c3n2)c1 [Compound 277] | 7200 nM | 105 nM | –
CNCCN(C)Cc1cccc(-c2cc(C3=CCOCC3)c3cnn(C(C)C)c3n2)c1 [Compound 188] | 8310 nM | 12.3 nM | –
CCNCCN(C)Cc1cccc(-c2cc(C(=O)NCC3CCOCC3)c3cnn(C(C)C)c3n2)c1 [Compound 271] | 20000 nM | 81.4 nM | –
CNCCN(C)Cc1cccc(-c2cc(C(=O)NCc3nccn3C)c3cnn(C(C)C)c3n2)c1 [Compound 212] | 1800 nM | 24.9 nM | –
CCN(c1cc(-c2cccc(CN(C)CCNC)c2)cc(C(=O)NCc2c(C)cc(C)[nH]c2=O)c1C)C1CCOCC1 [Compound 387] | – | 97.2 nM | 10900 nM
CC(C)n1ncc2c(C(=O)NCc3cncn3C)cc(-c3cccc(CN(C)CCN)c3)nc21 [Compound 185] | 10800 nM | 11.7 nM | –
CC(C)n1ncc2c(C(=O)NCC3CCOCC3)cc(-c3cccc(CN(C)CCNC4CCC4)c3)nc21 [Compound 273] | 14500 nM | 87.7 nM | –
CNCCN(C)Cc1cccc(-c2cc(C(=O)N3Cc4cccnc4C3)c3cnn(C(C)C)c3n2)c1 [Compound 301] | 15500 nM | 209 nM | –
CNCCN(C)Cc1cccc(-c2cc(CO)c3cnn(C(C)C)c3n2)c1 [Compound 290] | 20000 nM | 167 nM | –
CNCCN(C)Cc1cccc(-c2cc(C(=O)N(C)C3CC3)c3cnn(C(C)C)c3n2)c1 [Compound 292] | 14000 nM | 171 nM | –
CNCCN(C)Cc1cccc(-c2cc(C(=O)NCc3cccc4ccnn34)c3cnn(C(C)C)c3n2)c1 [Compound 232] | 1510 nM | 42.4 nM | –
CNCCN(C)Cc1cccc(-c2nc(NC3CCOCC3)c3cnn(C4CC4)c3n2)c1 [Compound 179] | 4870 nM | 8.88 nM | –
CN(CCN)Cc1cccc(-c2cc(C(=O)NC3CCOCC3)cc(N(C)CC3CC3)c2)c1 [Compound 217] | 5690 nM | 30 nM | –
CC(C)n1ncc2c(C(=O)NC3CC3)cc(-c3cccc(CN(C)CCN)c3)nc21 [Compound 210] | 2000 nM | 22.4 nM | –
CC(C)n1ncc2c(C(=O)NCC(F)(F)F)cc(-c3cccc(CN(C)CCN)c3)nc21 [Compound 222] | 3820 nM | 34.4 nM | –
CNCCN(C)Cc1cccc(-c2cc(C(=O)N3CCC3)c3cnn(C(C)C)c3n2)c1 [Compound 252] | 20000 nM | 59.3 nM | –
CC(C)n1ncc2c(C(=O)NCc3ccncc3)cc(-c3cccc(CN(C)CCN)c3)nc21 [Compound 172] | 3140 nM | 5.67 nM | –
CNCCN(C)Cc1cccc(-c2cc(C(=O)NCc3ccc(F)cc3)c3cnn(C(C)C)c3n2)c1 [Compound 276] | 20000 nM | 94.1 nM | –

Structure (SMILES) | IC50 ([1]; In Cell Western) | IC50 (Human CARM1 (PRMT4)) | IC50 ([1]; 48 h)
CC(C)n1ncc2c(C(=O)NCc3cnc4ccccn34)cc(-c3cccc(CN(C)CCN)c3)nc21 [Compound 194] | 1200 nM | 13.6 nM | –
CNCCN(C)Cc1cccc(-c2cc(N3CCCC3)c3cnn(C(C)C)c3n2)c1 [Compound 214] | 20000 nM | 26.6 nM | –
CCNC(=O)c1cc(-c2cccc(CN(C)CCNC)c2)nc2c1cnn2C(C)C [Compound 255] | 3870 nM | 62.3 nM | –
CC(C)n1ncc2c(C(=O)NCc3cnc[nH]3)cc(-c3cccc(CN(C)CCN)c3)nc21 [Compound 206] | 20000 nM | 19.7 nM | –
CCCc1cc(-c2cccc(CN(C)CCNC)c2)nc2c1cnn2C(C)C [Compound 239] | 20000 nM | 49 nM | –
CNCCN(C)Cc1cccc(-c2cc(C(F)(F)F)c3cnn(C(C)C)c3n2)c1 [Compound 293] | 17600 nM | 173 nM | –
CNCCN(C)Cc1cccc(-c2cc(C(=O)NC3CCOC3)c3cnn(C(C)C)c3n2)c1 (stereo not drawn) [Compound 234] | 2760 nM | 43.3 nM | –
CC(C)n1ncc2c(C(=O)NC3CCOCC3)cc(-c3cccc(CN(C)CCNC4CC4)c3)nc21 [Compound 295] | 12400 nM | 181 nM | –
CNCCN(C)Cc1cccc(-c2cc(C(=O)NC3CCOCC3)c3cnn(C)c3n2)c1 [Compound 284] | 20000 nM | 137 nM | –
CC(C)n1ncc2c(C(=O)N(C)Cc3ccccc3)cc(-c3cccc(CNCCN)c3)nc21 [Compound 238] | 20000 nM | 48.1 nM | –
CNCCN(C)Cc1cccc(-c2cc(NC(=O)OC)c3cnn(C(C)C)c3n2)c1 [Compound 190] | 2460 nM | 12.5 nM | –
CNCCN(C)Cc1cccc(-c2cc(C(=O)NCC(F)(F)F)c3cnn(C(C)C)c3n2)c1 [Compound 288] | 3440 nM | 159 nM | –
CC(C)n1ncc2c(C(=O)N3CCC(F)C3)cc(-c3cccc(CN(C)CCN)c3)nc21 (stereo not drawn) [Compound 257] | 10300 nM | 63.5 nM | –
CCn1ncc2c(C(=O)NCC3CCOCC3)cc(-c3cccc(CN(C)CCNC)c3)nc21 [Compound 227] | 4740 nM | 39.9 nM | –
CNCCN(C)Cc1cccc(-c2cc(C(=O)NCc3cnc[nH]3)c3cnn(C(C)C)c3n2)c1 [Compound 231] | 20000 nM | 42.2 nM | –
C=CCn1ncc2c(C(=O)NCC3CCOCC3)cc(-c3cccc(CN(C)CCNC)c3)nc21 [Compound 286] | 7150 nM | 148 nM | –
CNCCN(C)Cc1cccc(-c2cc(C(=O)N(C)Cc3cccnc3)c3cnn(C(C)C)c3n2)c1 [Compound 294] | 4020 nM | 177 nM | –
CC(C)n1ncc2c(C(=O)N(C)Cc3ccccn3)cc(-c3cccc(CN(C)CCN)c3)nc21 [Compound 282] | 8200 nM | 130 nM | –
CCn1ncc2c(C(=O)NC3CCOCC3)cc(-c3cccc(CN(C)CCNC)c3)nc21 [Compound 253] | 6090 nM | 61.3 nM | –
CCN(C)C(=O)c1cc(-c2cccc(CN(C)CCN)c2)nc2c1cnn2C(C)C [Compound 230] | 7630 nM | 41.4 nM | –
CC(C)n1cc2c(C(=O)NCC3CCOCC3)cc(-c3cccc(CN(C)CCN)c3)nc2n1 [Compound 297] | 20000 nM | 189 nM | –
